Results taken from patent publication EP1245247A1, “Biocidal locks” (Biolink Corporation, priority 2001, dated 2002).

Assays:
S. epidermis = details: cited from earlier work
E. coli = details: intravenous 0.2 mL of a 20% solution in sterile 5% polyvinyl pyrrolidone; intraperitoneal E. coli; cited from earlier work
[1] = mouse, in vivo; cited from earlier work
B. fragilis = details: intravenous 0.2 mL of a 20% solution in sterile 5% polyvinyl pyrrolidone; intraperitoneal B. fragilis; cited from earlier work
blood = test: Clotting of pig blood collected into containers holding taurolidine solution (Example 1); details: pig blood filled up to the 30 mL level; inspected after 30 minutes
Description: A 0.5% solution of taurolidine in Ringer-lactate solution (Thomae, Biberach, Germany) was introduced into each of four polyethylene bottles having a 30 mL volume. Filling volumes were 5, 10, and 15 mL. One bottle was filled with 5 mL of the taurolidine solution and 2 mL ACD-A (Fresenius, Bad Homburg, Germany) solution. ACD-A solution is used for the conservation of whole blood and contains per liter: 22.0 grams of sodium citrate dihydrate, 7.3 grams of citric acid and 34.5 grams of glucose monohydrate.
Blood was collected at a slaughter house from a female pig directly from the slaughter wound into the containers that were then filled up to the 30 mL level. The containers were capped and gently moved to mix blood with the solution. The containers were inspected after 30 minutes. Blood in the containers containing only taurolidine was clotted, but the blood in the container containing the mixture of taurolidine and ACD-A was not clotted.

[2] = tested on: Vancomycin-Intermediate Susceptibility Staphylococcus Aureus (VISA) and Methicillin-Resistant Staphylococcus Aureus (MRSA); details: range pH 7.0 to pH 5.0; cited from earlier work
[3] = mice; cited from earlier work

Question: With `CN[C@H](CC(C)C)C(=O)N[C@H]1C(=O)N[C@@H](CC(N)=O)C(=O)N[C@H]2C(=O)N[C@H]3C(=O)N[C@H](C(=O)N[C@H](C(=O)O)c4cc(O)cc(O)c4-c4cc3ccc4O)[C@H](O)c3ccc(c(Cl)c3)Oc3cc2cc(c3O[C@@H]2O[C@H](CO)[C@@H](O)[C@H](O)[C@H]2O[C@H]2C[C@](C)(N)[C@H](O)[C@H](C)O2)Oc2ccc(cc2Cl)[C@H]1O` [Vancomycin] as the molecule, how does the bactericidal dose (S. epidermis; initial inocula of 10^3 CFU/mL) read?
Answer: 6.7 µg/mL

Question: With `O=C([O-])CN(CCN(CC(=O)[O-])CC(=O)O)CC(=O)O.[Na+].[Na+]` [disodium EDTA] as the molecule, how does the bactericidal concentration (S. epidermis; initial inoculum of 10^3 CFU of staphylococci per mL, in 24 hours) read?
Answer: 20 mg/mL

Question: Which mortality rate (E. coli) does the source give for `O=S1(=O)CCN(CN2CCS(=O)(=O)NC2)CN1` [taurolidine, bis-(1,1-dioxo-perhydroxy-1,2,4-thiadiazin-4-yl)methane] here?
Answer: very significantly reduce the mortality rate

Question: And the teratogenicity [1]?
Answer: non-teratogenic

Question: What about the mortality rate (B. fragilis) of the same molecule?
Answer: very significantly reduce the mortality rate

Question: And the “Blood clotting in the containers” value (blood)?
Answer: clotted

Question: And the “dependence of activity on pH” value [2]?
Answer: activity increases with decreasing pH

Question: What about the “intraperitoneal LD50” value [3] of the same molecule?
Answer: ~1500 mg/kg
